These results are taken from patent US8183364B2, “Substituted porphyrins” (Duke University, priority 2004, dated 2012).

Entries after “also recorded” stand apart in the source; their conditions may differ. Some results are limits rather than exact numbers.

Series [1] relates to SOD-deficient JI132 E. coli. The series can be described thus: Aerobic growth of SOD-deficient E. coli. The format is cell-based. The protocol: (§1) Aerobic growth of E. coli. Bacterial strains of E. coli used were wild type AB1157 (F-thr-1 leu-1 proA2 his-4 argE3 thr-1 lacY1 galK2 rpsL supE44 ara-14 xyl-15 mtl-1 tsx-33) and SOD-deficient JI132 (same as AB1157 plus (sodA::mudPR13)25 (sodB-kan)1-Δ2. Culture media were prepared as follows. M9 medium: 6 g/L Na2HPO4, 3 g/L KH2PO4, 0.5 g/L NaCl, 1 g/L NH4Cl, 2 mM MgSO4, 0.1 mM CaCl2, adjusted to pH 7.4 with NaOH, and supplemented with 0.2% glucose, 3 mg/L each of D-panthotenic acid and thiamine. M9CA medium contained M9 medium plus 0.2% casamino acids. 5-amino acid (5AA) minimal medium contained M9 medium plus 0.5 mM each of threonine, leucine, histidine, proline and arginine (Faulkner et al, J. Biocl. Chem. 269:23471 (1994)).
(§2) AB 1157 and 31132 were precultured overnight aerobically in M9CA medium at 37° C. and were then diluted to 3×10^7 cells/mL into 5 mL M9CA medium. JI132 was precultured in the presence of 20 μg/mL chloramphenicol and 500 μg/mL kanamycin. When the cells are transferred from M9CA medium to 5AA minimal medium cultures were first centrifuged and washed twice with the 5AA medium before final dilution in it. The centrifugation was conducted at room temperature to avoid temperature shocks. Cultures without and with Mn porphyrins (0.1 to 30 μM) were grown aerobically in 5 mL volume in test tubes in a thermostated orbital shaker (45° angle, 200 rpm) at 37° C.). Rates of growth were followed turbidimetrically at 700 nm to minimize interference from the absorbance of test compounds.

For series [2] the following is noted: pH 7.8, (22 ± 1) °C; data from Batinic-Haberle et al 2002 (MnTE-2-PyP: Inorg. Chem. 40:726 (2001)); cited from earlier work.
Series [3] concerns wild type AB1157 E. coli. As to the kind of experiment: Aerobic growth of wild type E. coli (toxicity). The format is cell-based. To be noted: for growth of wild type E. coli: 5AA minimal medium. The protocol: as §1, §2
Series [4] can be described thus: Thin-layer chromatography on silica gel (retention factor Rf, lipophilicity). Format: physicochemical. To be noted: Rf; vs methyl porphyrin. As for the experimental part: Uv/vis spectra of porphyrin ligands and their Mn complexes were taken on a Shimadzu UV-2501-PC spectrophotometer at 25° C. Thin-layer chromatography of ligands and Mn complexes was done using silica gel plates with KNO3satH2O/H2O/acetonitrile=1/1/8.
Thin-layer chromatography. All new methoxyporphyrins are more lipophilic than MnTE-2-PyP^5+ and MnTDE-2-ImP^5+.

For series [5] the following is noted: cited from earlier work.
For series [6] the following is noted: data from Batinic-Haberle et al 2002, cited from earlier work.
The conditions of series [7]: previously observed (Batinic-Haberle et al 2002), compared with imidazolyl porphyrins; cited from earlier work.
For series [8] the following is noted: pH 7.8; cited from earlier work.
Setting [9] is: M9CA medium, range 0.1 to 30 μM.

Consider `CCCCCCCC[n+]1ccccc1-c1c2nc(c(-c3cccc[n+]3CCCCCCCC)c3ccc([n-]3)c(-c3cccc[n+]3CCCCCCCC)c3nc(c(-c4cccc[n+]4CCCCCCCC)c4ccc1[n-]4)C=C3)C=C2.[Mn+3]` [MnTnOct-2-PyP^5+], for which the “protection of SOD-deficient E. coli at 0.3 μM compared with 10 μM methyl, ethyl (and MnTDMOE-2-ImP) porphyrins” value in series [1] (M9CA medium, 0.3 μM, listed as n-octyl) is “equally protective; also recorded: the same level of protection”. Also, the “concentration at which the compound facilitates growth of SOD-deficient strain (utility)” value in series [1] (setting [9]) was not above 0.3 µM. Besides, the “protection of SOD-deficient E. coli higher than methyl porphyrin” value in series [1] (vs methyl porphyrin) turned out to be 30 fold. Also, in series [2], the “log kcat for O2^− dismutation” value is recorded as 7.71. Further, the “toxicity to E. coli at 100-fold lower concentration” value in series [3] (0.3 μM) is recorded as “mostly eliminated”. Also, the “growth of wild type E. coli” value in series [3] (3 μM) is “completely inhibited growth”; in series [3] (up to 25 μM) it was “toxic”. Besides, the “toxicity to wild type E. coli” value in series [3] (M9CA medium, 30 μM (up to 30 μM), listed as n-octyl) is “prevented wild type E. coli to grow; also recorded: prevent wild type E. coli from growing”. Moreover, the “concentration at which toxicity on the parental (wild type) strain is exerted / becomes observable” value in series [3] (setting [9]) came to 300 nM. Also, the “toxicity of metal-free vs Mn(III) complex” value in series [3] (separate experiment) is reported as “equally toxic”. Further, the “lipophilicity higher than methyl porphyrin” value in series [4] is reported as approximately 10 fold. The “Metal-centered redox potential E1/2” value in series [5] (Mn(III)/Mn(II), 0.1 M NaCl, 0.05 M phosphate buffer, pH 7.8, data from Batinic-Haberle et al 2002) was “+367 mV vs NHE”. For the same compound, the “Rf (compound path/solvent path), metal-free porphyrin (in parenthesis)” value in series [6] (metal-free ligand of the named Mn porphyrin) is on record as 0.86. In addition, the “Rf (compound path/solvent path), Mn complex” value in series [6] (silica gel TLC, KNO3-saturated H2O/H2O/acetonitrile = 1/1/8) is given as 0.08. Also, the “stability towards oxidative degradation” value in series [7] is “same level of stability”.

In the case of Cu,Zn-SOD: superoxide dismutase enzyme, the “equal rate constants of reduction and oxidation of O2.^−” value in series [8] was 2e+09 M⁻¹ s⁻¹. For the same compound, the E1/2 result in series [5] (literature value for the enzyme) is recorded as “~+300 mV vs NHE”.
